Assay results as given in patent US20070207946A1, “Dipeptidyl peptidase IV inhibitors and their uses for lowering blood pressure levels” (priority 2001, published 2007).
Where a name gives a salt, the structure may show the parent alone. Read-outs that look alike come from different tables or passages of the source. Blank lines part the entries; values can stand above or below the molecule they belong to.

Assays:
[1] = biological target: T1, Prolidase from porcine kidney (Sus scrofa, UniProt A0A5G2QQV1); assay: Cross reacting enzymes - prolidase; type: biochemical; details: substrate Ile-Pro-OH, pH 7.6, read-out: IC50 against prolidase
T1 construct: Prolidase from porcine kidney (ICN Biomedicals, Eschwege, Germany); purchased ICN Biomedicals, Eschwege, Germany; host or cells: porcine kidney
T1 sequence (A0A5G2QQV1 1-463): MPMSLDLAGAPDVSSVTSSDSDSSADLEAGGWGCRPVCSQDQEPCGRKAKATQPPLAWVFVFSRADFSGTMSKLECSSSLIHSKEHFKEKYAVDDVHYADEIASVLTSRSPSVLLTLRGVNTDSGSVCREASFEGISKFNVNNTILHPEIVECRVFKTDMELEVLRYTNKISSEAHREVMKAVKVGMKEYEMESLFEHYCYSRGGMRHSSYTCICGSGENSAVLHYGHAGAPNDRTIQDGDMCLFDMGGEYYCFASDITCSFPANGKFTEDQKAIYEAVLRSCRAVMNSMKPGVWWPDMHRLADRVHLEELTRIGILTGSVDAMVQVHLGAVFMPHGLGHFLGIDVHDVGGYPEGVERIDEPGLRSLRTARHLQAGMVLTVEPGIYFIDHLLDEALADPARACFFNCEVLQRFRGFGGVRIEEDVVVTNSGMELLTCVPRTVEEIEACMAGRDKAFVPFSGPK
Method: Prolidase (EC 3.4.13.9) was first described by Bergmann & Fruton (Bergmann, M. & Fruton, J S, 1937, J. Biol. Chem. 189-202). Prolidase releases the N-terminal amino acid from Xaa-Pro dipeptides and has a pH optimum between 6 and 9.
Prolidase from porcine kidney (ICN Biomedicals, Eschwege, Germany) was solved (1 mg/ml) in assay buffer (20 mM NH4(CH3COO)2, 3 mM MnCl2, pH 7.6). In order to get a fully active enzyme the solution was incubated for 60 min at room temperature.
450 μl glutaminyl pyrrolidine or glutaminyl thiazolidine in an concentration range of 5*10^−3 M-5*10^−7 M were admixed with 500 μl buffer solution (20 mM NH4(CH3COO)2, pH 7.6) and 250 μl Ile-Pro-OH (0.5 mM in the assay, mixture). The assay mixture was pre-incubated at 30° C. for 5 min. After pre-incubation, 75 μl Prolidase (1:10 diluted in assay buffer) were added and measurement was performed at 30° C. and λ=220 nm for 20 min using a UV/Vis photometer, UV1 (Thermo Spectronic, Cambridge, UK).
The IC 50-values were calculated using Graphit 4.0.15 (Erithacus Software, Ltd., UK).

[2] = biological target: T2, plasma DPIV activity (Rattus norvegicus, UniProt P14740); assay: DPIV inhibiting activity after intravasal and oral administration to Wistar rats; type: in vivo; details: rat
T2 construct: from tissue; host or cells: plasma of Wistar rats
Method: Male Wistar rats (Shoe: Wist(Sho)) with a body weight ranging between 250 and 350 g were purchased from Tierzucht Schönwalde (Schönwalde, Germany).
Animals were single-caged under conventional conditions with controlled temperature (22±2° C.) on a 12/12 hours light/dark cycle (light on at 06:00 AM). Standard pelleted chow (ssniff® Soest, Germany) and tap water acidified with HCl were allowed ad libitum.
After ≧one week of adaptation at the housing conditions, catheters were implanted into the carotid artery of Wistar rats under general anaesthesia (i.p. injection of 0.25 ml/kg b.w. Rompun® [2%], BayerVital, Germany and 0.5 ml/kg b.w. Ketamin 10, Atarost GmbH & Co., Twistringen, Germany). The animals were allowed to recover for one week. The catheters were flushed with heparin-saline (100 IU/ml) three times per week. In case of catheter dysfunction, a second catheter was inserted into the contra-lateral carotid artery of the respective rat. After one week of recovery from surgery, this animal was reintegrated into the study. In case of dysfunction of the second catheter, the animal was withdrawn from the study. A new animal was recruited and the experiments were continued in the planned sequence, beginning at least 7 days after catheter implantation.
After overnight fasting, 100 μl samples of heparinised arterial blood were collected at −30, −5, and 0 min. […] In the case of oral administration, an additional volume of 1 ml saline was injected into the arterial catheter. In the case of infra-arterial administration, the catheter was immediately flushed with 30 μl saline and an additional 1 ml of saline was given orally via the feeding tube.
All blood samples were collected into ice cooled Eppendorf tubes (Eppendorf-Netheler-Hinz, Hamburg, Germany) filled with 10 μl 1M sodium citrate buffer (pH 3.0) for plasma DPIV activity measurement. Eppendorf tubes were centrifuged immediately (12000 rpm for 2 min, Hettich Zentrifuge EBA 12, Tuttlingen; Germany): The plasma fractions were stored on ice until analysis or were frozen at −20° C. until analysis. All plasma samples were labelled with the following data:
The assay mixture for determination of plasma DPIV activity consisted of 80 μl reagent and 20 μl plasma sample. […] The DPIV activity was expressed in mU/ml.
All parameters were analysed in a descriptive manner including mean and SD.

[3] = In vivo inactivation of glutaminyl thiazolidine after oral administration to Wistar rats; details: plasma LC/MS
Method: Glutaminyl thiazolidine was administered to Wistar rats orally as described in example 9.
After application of placebo or glutaminyl thiazolidine, arterial blood samples were taken at 2.5, 5, 7.5, 10, 15, 20, 40, 60 and 120 min from the carotid catheter of the conscious unrestrained rats to determine the formation of degradation products of glutaminyl thiazolidine.
For analysis, simple solid phase extraction procedure on C18 cartridges was used to isolate the compounds of interest from the plasma. The extracts were analysed using reversed-phase liquid chromatography on Lichrospher 60 RP Select B column hyphenated with tandem mass spectrometry operating in the APCI positive mode. An internal standard method was used for quantification.

[4] = test system: Wistar-rats; assay: Insulin and blood glucose responses to glucose after i.v. administration of inhibitor; type: in vivo, rat
Method: The test group additionally obtained an infusion of the inhibitor of 0.75 M/min over 30 min experimental time (*). The control group received during the same time interval an infusion of inhibitor-free 0.9% saline solution. At starting time t=0 all animals were administered an i.d. glucose dose of 1 g/kg 40% dextrose solution (w/v). Blood samples were collected of all test animals in 10 min time intervals. Glucose was analyzed using whole blood (Lifescan One Touch II analyzer) while DPIV-activity and insulin concentration were analyzed in plasma. […] All data are presented as mean+/−s.e.m.

[5] = biological target: T3, PepT1 (Oryctolagus cuniculus, UniProt P36836); assay: Transport characteristics at PepT1-expressing oocytes of X. leavis, two-electrode voltage clamp; type: cell-based
T3 sequence (P36836 1-707): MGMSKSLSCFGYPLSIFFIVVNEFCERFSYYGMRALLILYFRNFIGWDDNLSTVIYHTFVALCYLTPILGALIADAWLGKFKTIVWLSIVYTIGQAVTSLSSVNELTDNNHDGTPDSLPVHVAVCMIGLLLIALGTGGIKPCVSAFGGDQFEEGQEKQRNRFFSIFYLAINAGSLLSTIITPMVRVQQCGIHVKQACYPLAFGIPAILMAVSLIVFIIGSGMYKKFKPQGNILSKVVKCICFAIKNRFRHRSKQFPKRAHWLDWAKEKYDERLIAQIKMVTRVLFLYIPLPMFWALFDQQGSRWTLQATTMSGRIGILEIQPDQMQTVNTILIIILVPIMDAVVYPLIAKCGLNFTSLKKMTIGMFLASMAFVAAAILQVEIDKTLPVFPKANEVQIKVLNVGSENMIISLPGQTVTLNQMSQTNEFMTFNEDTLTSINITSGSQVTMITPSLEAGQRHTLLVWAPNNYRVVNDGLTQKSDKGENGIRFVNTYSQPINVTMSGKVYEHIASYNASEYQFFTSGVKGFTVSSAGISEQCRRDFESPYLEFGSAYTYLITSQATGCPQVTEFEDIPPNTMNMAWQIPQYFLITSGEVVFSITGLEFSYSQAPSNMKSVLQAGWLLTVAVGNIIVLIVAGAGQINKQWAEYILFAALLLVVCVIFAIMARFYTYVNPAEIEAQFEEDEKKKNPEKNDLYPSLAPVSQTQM
Excerpt: (§1) Side chain-modified glutamyl thiazolidines having a structure H-Glu(X)-Thia were synthesised, with polyethylene glycol or glycine oligomers of various chain lengths being used as X (see Method A of example for description of synthesis). The binding characteristics of those derivatives and their transportability by the peptide transporter PepT1 were investigated.

[6] = test system: DPIV and DPIV-like enzymatic activity; assay: Inhibition of the DPIV-catalyzed hydrolysis of the incretins GIP1-42 and GLP-17-36 in vitro (pooled human serum, MALDI-TOF); type: biochemical; details: 20 mM inhibitor; 30 mM peptide; 20% pooled serum; pH 7.6; 30° C.; 24 hours
Excerpt: It is possible to suppress the in vitro hydrolysis of incretins caused by DPIV and DPIV-like enzymatic activity using purified enzyme or pooled human serum (FIG. 1).
Samples were cocrystallized using 2′,6′-dihydroxy-acetophenon as matrix and analyzed by MALDI-TOF-mass spectrometry. Spectra (FIG. 1) display accumulations of 250 single laser shots per sample.
In the control assays containing no inhibitor the incretins were almost completely degraded (FIGS. 1b and 1c, both bottom spectra).

[7] = biological target: T3, PepT1; assay: Inhibition of binding of 3H-D-Phe-Ala to PepT1-expressing P. pastoris cells; details: read-out: EC50: concentration inhibiting the binding of 3H-D-Phe-Ala to PepT1-expressing P. pastoris cells by 50%
Excerpt: as §1

[8] = test system: F344 rats; assay: Chronic intragastric infusion via osmotic minipumps over two weeks - blood pressure; type: in vivo, rat
Method: Reduced expression of the ectopeptidase DPIV and lack of DPIV-like activity in mutant F344 rats lacking DPIV enzymic activity and expression results in a lowered blood pressure. Mutant F344 substrains lacking DPIV enzymic activity and wild-type-like F344 were tested.

[9] = test system: fatty (fa/fa) VDF Zucker rats; assay: Chronic oral treatment of fatty Zucker rats - systolic blood pressure (tail-cuff); type: in vivo, rat; details: 10 mg/kg oral gavage twice daily
Method: (§2) Animals were housed singly, on a 12 hour light/dark cycle (lights on at 6 am) and allowed access to standard rat food, and water ad libitum.
Systolic blood pressure was measured weekly using the tail-cuff procedure.

[10] = test system: fatty (fa/fa) VDF Zucker rats; assay: Chronic oral treatment of fatty Zucker rats - fasting blood glucose; type: in vivo, rat; details: 10 mg/kg oral gavage twice daily, 12 weeks
Method: as §2
Every two days, body weight, morning and evening blood glucose, and food and water intake were assessed. Blood samples for glucose determination were acquired from tail bleeds, and measured using a SureStep glucose analyzer (Lifescan Canada Ltd., Burnaby).
(§3) Every four weeks from the start of the experiment, an oral glucose tolerance test (OGTT) was performed: animals were fasted for 18 hours following the 1700 h dosing and administered 1 g/kg glucose orally.

[11] = Circulating half-life; type: in vivo; details: 18 hours following dosing
Method: as §3

T2 sequence (P14740 38-767 limits assumed): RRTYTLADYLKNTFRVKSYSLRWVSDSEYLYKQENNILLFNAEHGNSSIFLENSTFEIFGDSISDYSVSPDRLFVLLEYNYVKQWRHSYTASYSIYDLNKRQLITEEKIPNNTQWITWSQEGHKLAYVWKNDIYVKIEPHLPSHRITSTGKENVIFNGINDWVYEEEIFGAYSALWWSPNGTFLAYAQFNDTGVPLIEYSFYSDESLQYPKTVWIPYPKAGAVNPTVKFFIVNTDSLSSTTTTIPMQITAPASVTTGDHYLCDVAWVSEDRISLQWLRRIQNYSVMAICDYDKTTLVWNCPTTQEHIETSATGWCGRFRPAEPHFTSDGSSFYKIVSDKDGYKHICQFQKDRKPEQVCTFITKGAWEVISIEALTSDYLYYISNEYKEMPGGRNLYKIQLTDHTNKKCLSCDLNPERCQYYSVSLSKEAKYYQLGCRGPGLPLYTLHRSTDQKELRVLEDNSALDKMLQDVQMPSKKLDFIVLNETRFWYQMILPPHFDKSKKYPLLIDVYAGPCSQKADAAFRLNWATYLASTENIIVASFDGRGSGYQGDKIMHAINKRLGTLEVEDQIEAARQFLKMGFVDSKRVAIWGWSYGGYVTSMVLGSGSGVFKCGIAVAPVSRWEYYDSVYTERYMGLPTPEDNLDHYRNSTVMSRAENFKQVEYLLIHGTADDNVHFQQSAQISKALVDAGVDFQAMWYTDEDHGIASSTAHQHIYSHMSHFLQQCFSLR

IC50 [1]: > 3 mM
inhibition at 100 mg/kg ([2]; iv, intra-vasal (intra-arterial) route, read-out: in vivo DPIV-inhibition at tmax, i.v.): 88%
inhibition at 100 mg/kg ([2]; oral, read-out: in vivo DPIV-inhibition at tmax, p.o.): 71%
degradation of the compound in vivo [3]: degradation of the compound was found
degradation product [3]: pyroglutaminyl thiazolidine
Structure (SMILES): NC(=O)CCC(N)C(=O)N1CCSC1 (centres unmarked) [Gln-Thia, glutaminyl thiazolidine]

Imax, inward currents generated by the transport [5]: 25 ± 8 nA
suppression of the enzyme-catalyzed hydrolysis of GIP1-42 and GLP-17-36 [6]: complete suppression
EC50 [7]: 980 µM
Structure (SMILES): CCC(C)C(N)C(=O)N1CCSC1 (centres unmarked) [isoleucyl thiazolidine]
circulating glucose concentration after intraduodenal (i.d.) glucose ([4]; 0.1 mg per kg, versus untreated controls): more rapid reduction
effect on circulating glucose after i.v. administration of the same amount of glucose ([4]; inhibitor-treated): no comparable effect

Structure (SMILES): CC[C@H](C)[C@H](N)C(=O)N1CCSC1 [Isoleucyl thiazolidine fumarate]
blood pressure [8]: dose-dependently reduced
systolic blood pressure [9]: stabilization
fasting blood glucose [10]: dramatic reduction and almost normalization
number of circulating half-lives equivalent to the 18 hours fasting period [11]: ~12 circulating half-lives
